Data as given in paper PMC6152192, “Novel Methylselenoesters as Antiproliferative Agents” (Molecules : A Journal of Synthetic Chemistry and Natural …, 2017).

Experiments:
[1] = Methylselenol (CH3SeH) release by hydrolysis, quantified with DTNB (Ellman's reagent); format: physicochemical; conditions: 100 μM compound, 100 μM DTNB
Source text: The new compounds were designed as CH3SeH precursors. The chemical features of the selenoester functional group facilitate a nucleophilic attack (i.e., with water) which would deliver the CH3SeH residue. In order to verify if CH3SeH could be released from the molecules by hydrolysis and if the rate differed among the compounds, the reaction of CH3SeH with 5,5′-dithiobis(2-nitrobenzoic acid) (DTNB or Ellman’s reagent) in aqueous environment was monitored. Briefly, when the disulfide bridge of DTNB reacts with thiols or selenols, 2-nitro-5-thiobenzoate (TNB^2−) is released and the mixed disulfide or selenylsulfide is formed. Each released CH3SeH produces one yellow TNB^2− species, whose absorbance can be quantified at 412 nm (Figure 2A).
A stock solution of the compounds was prepared in anhydrous DMSO (10 mM). The compounds were placed in a 96-well plate in a final concentration of 100 μM. Reaction started after adding 200 μL of an aqueous 100 mM Na2HPO4 buffer (1 mM EDTA, pH = 8), containing 100 μM of DTNB from a freshly prepared 10 mM ethanolic stock, which were added just before starting the reaction. The DTNB concentration was quantified with a cysteine standard curve ([…]). Blanks for the compounds in the absence of DTNB were also included as well as a blank to measure the slow but spontaneous hydrolysis of DTNB, which was further subtracted from all the values. Absorbance was read at 412 nm in a FLUOstar Omega microplate reader (BMG LabTech, Ortenberg, Germany). Results represent means of triplicate values ± SD.
Figure 2 CH3SeH release rates are dependent on the chemical features of the molecule. Released CH3SeH was quantified through reaction with Ellman’s reagent (DTNB). (A) Proposed reaction between CH3SeH and DTNB; (B) Quantification of TNB^2− at different times. The compounds were tested at 100 μM in 200 μL of 100 mM phosphate buffer (1 mM EDTA, pH = 8). DTNB concentration was also 100 μM. Absorbance was followed at 412 nm over 72 h. A cysteine standard curve (7.5–150 μM) was used to calculate the concentration of TNB^2− over time. Compounds showing less than 15% hydrolysis at 72 h are not included, except for compound 5 as example. Error bars indicate SD of triplicates.

[2] = system: MCF7 (mammary adenocarcinoma); assay: MTT viability assay, MCF7; format: cell-based; conditions: MCF7, 72 h, MTT; for CC50: read-out: LC50 (the source's name)
Procedure, shortened: (§1)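 Cells (10,000/well; RPMI or, for BEAS-2B, DMEM with 10% FBS; 37 °C, 5% CO2) were treated 72 h with six concentrations from 0.1 to 100 μM, diluted from 0.01 M DMSO stock. MTT was added for 4 h, formazan dissolved in DMSO, absorbance read at 550 nm; GI50, TGI and LC50 derived.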

[3] = system: K-562 (chronic myelogenous leukemia); assay: MTT viability assay, K-562; format: cell-based; conditions: K-562, 72 h, MTT; for CC50: read-out: LC50 (the source's name)
Procedure, shortened: as §1

[4] = system: thioredoxin reductase (TrxR1); assay: Thioredoxin reductase activity assay (NADPH consumption); format: biochemical; conditions: 100 nM TrxR1, 227 μM NADPH, TE buffer pH 8, 45 min
Method: The assay was performed as previously described, but in a final volume of 200 μL in a 96-well plate. Reaction started after addition of 133 μL of TE buffer (20 mM Tris, 2 mM EDTA, pH = 8), 0.227 mM NADPH (freshly prepared) to different concentrations of compounds solved in DMSO and TrxR1 (final concentration 100 nM). NADPH consumption was followed measuring absorbance decrease at 340 nm in a VersaMax microplate reader (Molecular Devices, Sunnyvale, CA, USA) over 45 min. A background sample with DMSO without the compounds was included and subtracted from the values.
Figure 7 Compounds 5 and 15 are substrates for thioredoxin reductase but not for the glutathione-glutaredoxin system. (A) NADPH consumption indicating reduction of compounds 5, 15 or MSA as control by thioredoxin reductase. The reaction mixture contained 100 nM TrxR1, 227 μM NADPH and the corresponding amount of compound in TE buffer (20 mM Tris, 2 mM EDTA pH = 8); (B) NADPH consumption indicating reduction of MSA by glutathione in the presence or absence of glutaredoxin. The reaction mixture contained the corresponding amount of compound, 0.1 M Tris, 2 mM EDTA pH = 8, 0.1 mg/mL BSA, 1 mM GSH, 200 μM NADPH, 0.008 OD/mL yeast GR and 1 μM hGrx1 when required. Only results for MSA are shown, as compounds 5 and 15 were not reduced.

Substance | CH3SeH release / hydrolysis rate ([1]; 100 mM phosphate buffer, 1 mM EDTA, pH 8, followed over 72 h) | GI50 [2] | TGI [2] | CC50 [2] | GI50 [3] | TGI [3] | CC50 [3] | reduction by TrxR1 (NADPH consumption) [4] | hydrolysis at 72 h ([1]; phosphate buffer pH 8, 72 h)
Dimethyl 2,5-furandicarboselenoate [Compound 15] | more sustained release | 1800 ± 900 nM | 7.2 ± 1.9 µM | 57 ± 4 µM | 42 ± 3.8 µM | 70.6 ± 3.4 µM | 99.2 ± 5.3 µM | substrates only for TrxR1 | –
Methyl 3-chlorothiophen-2-carboselenoate [Compound 5] | – | 3100 ± 900 nM | 6.9 ± 1.1 µM | 35.9 ± 4.4 µM | 38.7 ± 2.1 µM | 67.0 ± 1.9 µM | 95.2 ± 2.2 µM | substrates only for TrxR1 | less than 15%
